Reference: patent US10684290B2, “LKB1 related diagnostics and treatments of cancer” (Dignity Health, priority 2014, dated 2020)

What was measured:
Type in all cases: cell-based, human
H838-KDLKB1 cells = test: Clonogenic survival of H838-LKB1 and H838-KDLKB1 cells
Experimental: Clonogenic survival assay were performed in 6 well dishes. Briefly, 200 of indicated cells were plated per well and allowed to attach overnight. Were indicated cells were pre-treated with 125 ng/ml of cyclohexamide (CHX) for one hour. Indicated drugs were diluted fresh into media and cells were treated for 24 h, at which time the drug containing media was removed and replaced with fresh media. After 14 days, cells were fixed in 10% Methanol/10% Acetic Acid and stained with 0.5% crystal violet. After washing in ddH2O, plates were allowed to dry and colonies of 50 cells or more were counted. The surviving fraction was calculated according to methods described by Franken et al. [Clonogenic assay of cells in vitro, NAT. PROT. 1 (5) (2006) 2315-2319].

AMPK, H2009 LA cells = test: Immunoblot of BiP and CHOP in H2009 cells with AMPK inhibitor before 2DG; set-up: dose or concentration left out as unconfirmed; conditions: H2009 cells treated with Compound C
Experimental: Cells were incubated on ice for 30 minutes with a lysis buffer containing 10 mM Tris-HCL, 150 mM NaCl, 0.1% SDS and 1% IGEPAL (Sigma). Immediately before use, a protease inhibitor cocktail (Sigma) and two phosphatase cocktails I and II (Sigma) were added to the lysis buffer. Lysates were transferred to tubes and insoluble material was pelleted by centrifugation. Nuclear protein fractions were isolated using a NE-PER protein extraction kit (ThermoFisher) according to manufacturer's instructions. Protein concentration was determined using the Bio-Rad DC protein kit. For immunoblotting, 50-100 ug of total protein lysates was separated by SDS-PAGE and transferred to nitrocellulose. Blots were blocked in 5% milk/Tris buffered saline/0.1% TWEEN® 20 (polyoxyethylenesorbitan monolaurate) (TBST) and primary antibodies were diluted in 5% Bovine Serum Albumin (Sigma)/TBST and incubated overnight at 4° C. Blots were developed with ECL plus (GE) and visualized on a Kodak Image station.

[1] = tested on: H838-KDLKB1 and H838-LKB1 cells; test: Flow cytometry of ROS levels (CellROX staining); conditions: CellROX FACS, 12 h; 2DG 10 mM, Tm 1.25 μg/ml, BFA 30 ng/ml; baseline difference 1.4-fold
Experimental: To analyze levels of reactive oxygen species (ROS), 1×10^6 H838-KDLKB1 and H838-LKB1 cells were plated and treated with the indicated drugs. Cells were then stained with 0.5 1M CellRox™ for 30 min at 37° C., collected by trypsinization and washed with PBS. Following fixation with 2% Paraformaldehyde/PBS for 20 min, cells were brought to a final volume of 500 ll in PBS. CellRox™ staining of ROS was assessed using the Accuri C6 Flow Cytometer (BD Biosciences, San Jose, Calif., USA) with the threshold set at 80,000. A total of 30,000 events were collected per sample and ROS staining intensity determined using FCS Express 4 Flow Cytometer software. Background events were gated out using unstained control. Histogram plots were overlaid and histogram subtraction was performed by subtracting the integral of the stained control from the treated sample.

[2] = tested on: H838-KDLKB1 and H838-LKB1 cells; test: ATP measurement/cell viability (CellTiter-Glo), H838; conditions: 48 h; 2DG 10 mM, Tm 1.25 μg/ml, BFA 30 ng/ml; p<0.005
Experimental: (§1) 500 H838 or A427 cells stably expressing either LKB1 or KDLKB1 were plated in 96 well plates. The following day, cells were dosed with the indicated treatments for 48 h. Cellular ATP levels were assessed using the CellTiter-Glo Luminescent Cell Viability Assay substrate (Promega) according to manufacturer's instructions. Luminescence was read using the DTX 880 Multimode Detector. Cellular ATP/cell viability was calculated relative to vehicle treated control.

[3] = tested on: A427-KDLKB1 and A427-LKB1 cells; test: ATP measurement/cell viability (CellTiter-Glo), A427; conditions: 48 h; 2DG 10 mM, Tm 1.25 μg/ml, BFA 30 ng/ml; p<0.005
Experimental: as §1

[4] = tested on: H838-KDLKB1 and H838-LKB1 cells; test: Immunoblot of ER stress markers in H838-LKB1 and H838-KDLKB1 cells; conditions: 12 h; 2DG 10 mM, Tm 1.25 ug/ml, BFA 30 ng/ml
Experimental: Cells were washed once with ice-cold PBS and incubated on ice for 30 min with a lysis buffer containing 10 mM Tris-HCl, 150 mM NaCl, 0.1% SDS and 1% IGEPAL (Sigma) to which a protease inhibitor cocktail (Sigma) and two phosphatase cocktails I and II (Sigma) were added immediately before use. Lysates were transferred to tubes and insoluble material was pelleted by centrifugation. For immunoblotting, 50-100 μg of total protein lysates were separated by SDS-PAGE and transferred to nitrocellulose. Blots were blocked in 5% milk/Tris buffered saline/0.1% TWEEN® 20 (polyoxyethylenesorbitan monolaurate) (TBST) and primary antibodies were diluted in 5% Bovine Serum Albumin (Sigma)/TBST and incubated overnight at 4° C. Blots were developed with ECL plus (GE) and visualized on a Kodak Image station.

In the case of `C[C@@H]1C[C@@H]([C@H](O)CC2CC(=O)NC(=O)C2)C(=O)[C@@H](C)C1` [CHX, Cycloheximide], the “Effect of added CHX on 2DG, BFA and Tm cytotoxicity in H838-KDLKB1 cells” value (H838-KDLKB1 cells; 125 ng/ml CHX pre-treatment one hour, compared to 2DG, BFA or Tm alone, p<0.05) is reported as “ameliorate 2DG, BFA and Tm cytotoxicity”.

`c1cc(-c2cnn3cc(-c4ccc(OCCN5CCCCC5)cc4)cnc23)ccn1` [compound C] was tested, and the “Expression of BiP and CHOP in response to 2DG” value (AMPK, H2009 LA cells) was “prevented expression of both BiP and CHOP”.

With `C[C@H]1CCC/C=C/[C@@H]2C[C@H](O)C[C@H]2[C@H](O)/C=C/C(=O)O1` [BFA, brefeldin A] the “Clonogenic cell survival of H838-KDLKB1 cells” value (H838-KDLKB1 cells; 24 h, 2DG 10 mM, Tm 1.25 μg/ml, BFA 30 ng/ml) was “reduced cell survival”, the “ROS levels in H838-KDLKB1, increase in intensity over H838-LKB1” value [1] was 1.2 fold and the “Cellular ATP in H838-KDLKB1 compared to H838 re-expressing LKB1” value [2] was “reduced ATP”. For the same compound, the “Cellular ATP in A427-KDLKB1 compared to A427 re-expressing LKB1” value [3] was “reduced ATP” and the “Phosphorylated eIF2a in H838-KDLKB1 compared to H838-LKB1 cells” value [4] was “increased levels of phosphorylated eIF2a”.
